Test results published in US20260217701A1, “SELECTIVE BET INHIBITORS AND USES THEREOF” (Tay Therapeutics Limited, priority 2022, published 2026).
Where “and” joins values, the source holds several entries; their conditions need not be identical. Equal entries are not always repeated. Where two headings read alike, the source gives them in different places.

How the values were obtained:
IL-22 = IL-22 release from activated human PBMCs (ELISA); type: cell-based; conditions: for Percent Inhibition Relative to Control (IL-22): Donors 1-6, two values per donor; for IC50: Homo sapiens, PBMC
Description: Human PBMCs used to analyze inhibition of CXCL10 were collected from 8 donors, PBMCs used to analyze inhibition of IL-17A were collected from 7 donors, and PBMCs used to analyze inhibition of IL-22 were collected from 6 donors. Compounds were serially diluted in 10 mM DMSO and further diluted in assay media to 100× the required final concentration, of which 2 μL was added to the specified well. […] The cell culture supernatant was collected and levels of IL-17A and IL-22 in the supernatant were assessed by ELISA (Invitrogen).

BRD4 BD1 = biological target: T1, BRD4 BD1 (Homo sapiens, UniProt O60885); experiment: NanoBRET bromodomain assay, NanoLuc-BRD4-BD1 in HEK293 cells; type: binding
T1 construct: HEK293 cells were transfected using NanoLuc-BRD4-BD1 or NanoLuc-BRD4-BD2 fusion vectors

[1] = system: gastrointestinal mucosa / goblet cells; experiment: Gastrointestinal histopathology (Dog PK Study #4); type: in vivo; conditions: healthy beagle dogs; 10 mg/kg; Day 15
Description: Oral pan-BD BET inhibitors are known to negatively impact gastrointestinal mucosa through goblet cell toxicity, leading to related gastrointestinal adverse events in the clinic (Faivre et al., Nature, 578:306-310 (2020)). Therefore, the impact of Compound A on gastrointestinal toxicity and the mucosa was assessed in healthy beagle dogs as part of Dog PK Study #4, outlined in Experimental Method B.
Following completion of Dog PK study #4 on Day 15, animals were euthanized, and the large and small intestines were collected and fixed in 10% neutral buffered formalin. The tissues were then removed from the fixative, processed, embedded in paraffin, sectioned, and stained with hematoxylin and eosin, prior to microscopic examination.

[2] = Rat PK study #2 (Compound A PO 5 mg/kg, DMSO/PEG-400/water); type: in vivo, SD rats
Description: For the second rat pharmacokinetic study, the pharmacokinetics of Compound A were assessed in male SD rats. Compound A was prepared in a formulation of 5% DMSO, 40% PEG-400, and 55% Milli-Q water (see formulation in Table 2D) and delivered to animals orally (PO) at a dose of 5 mg/kg. Animals (n=3) were then monitored over a 24-hour period.
Blood samples (~0.2 mL) were collected according to a schedule (0.083, 0.25, 0.5, 1, 2, 4, 8, and 24 h following the initial dosing) by jugular vein by cannulation and EDTA-K2 was used as anticoagulant. Within 30 minutes of collection, the samples were centrifuged at approximately 4000 times g-force for 5 minutes at 4° C. to obtain blood plasma. The plasma samples were immediately divided into two aliquots (~75 μL each), transferred to a cryogenic vial, and stored in a freezer at −75±15° C. prior to analysis.
The concentration of Compound A in plasma samples was determined by liquid chromatography-mass spectrometry (LC-MS/MS) using a Shimadzu HPLC (DGU-405; LC-30AD XS CN; SIL-40AC XSCN; Plate Changer CN; CTO-40C CN; and CBM-40 CN) and an AB API 7500+LC/MS/MS instrument. Samples were analyzed on a Raptor Biphenyl 2.7 μm (50×2.1 mm) column. Solution A in the mobile phase was 95% water (0.1% formic acid) and solution B was 95% acetonitrile in water (0.1% formic acid), injection volume was 15 μL, and flow rate was 0.6 mL/min.
To prepare samples for analysis, serial concentrations were prepared by diluting the stock solution of analyte with a 50% acetonitrile in water solution. 5 μL working solutions (5, 10, 20, 50, 100, 500, 1000, 5000, and 10000 ng/ml) were added to 50 μL of the blank SD rat plasma to achieve calibration standards of ~0.5 to 1000 ng/ml (0.5, 1, 2, 5, 10, 50, 100, 500, and 1000 ng/ml) in a total volume of 55 μL. Five quality control samples at 1 ng/ml, 2 ng/ml, 5 ng/ml 50 ng/ml, and 800 ng/ml for plasma were prepared independently of those used for the calibration curves. These QC samples were prepared on the day of analysis in the same way as calibration standards.
55 μL of standards, 55 μL of QC samples and 55 μL of unknown samples (50 μL of unknown rat plasma with 5 μL of blank solution) were added to 200 μL of acetonitrile containing IS mixture (verapamil) for precipitating protein respectively. The samples were then vortexed for 30 s. After centrifugation at 4° C., 3900 rpm for 15 min, the supernatant was diluted 3 times with water. […] of diluted supernatant was injected into the LC/MS/MS system for quantitative analysis.

[3] = SD rats, PO 5 mg/kg, DMSO/PEG-400/Milli-Q water formulation, individual animals, 5 mg/kg
[4] = SD rats, PO 5 mg/kg, DMSO/PEG-400/Milli-Q water formulation, mean of 3 animals
[5] = male, Sprague-Dawley, rat, plasma, po, 5 mg/kg, SD rats, PO 5 mg/kg, DMSO/PEG-400/Milli-Q water formulation, mean of 3 animals

Cn1cc(-c2ccccc2)c(-c2cn(C)c(=O)c3[nH]c(-c4cnn(C(F)(F)F)c4)cc23)cc1=O [Compound A, 6-methyl-4-(1-methyl-2-oxo-5-phenyl-1,2-dihydropyridin-4-yl)-2-(1-(trifluoromethyl)-1H-pyrazol-4-yl)-1,6-dihydro-7H-pyrrolo[2,3-c]pyridin-7-one]
potency against IL-22 relative to CXCL10 (IL-22): about 17,000 fold
Biomarker selectivity (IL-22 vs. CXCL 10) (IL-22; Average preliminary biomarker assay): 5178 Fold
Percent Inhibition Relative to Control (IL-22) (IL-22; Compound Conc. 0.000137174 μM): 36.49% and 20.77% and 20.31% and 15% and 13.22% and 40.62% and 42.44% and −18.99% and 2.10% and 20.38% and 35.83% and 13.68%
Percent Inhibition Relative to Control (IL-22) (IL-22; Compound Conc. 0.000411523 μM): 27.24% and 13.07% and 35.55% and 45.22% and 56.28% and 11.33* Percent and 49.71% and 35.72% and 28.88% and 47.8% and 62.34% and 36.26%
Percent Inhibition Relative to Control (IL-22) (IL-22; Compound Conc. 0.001234568 μM): 58.12% and 42.53% and 46.04% and 55.94% and 57.50% and 65.37% and 75.65% and 47.36% and 70.12% and 62.59% and 69.46% and 42.31%
Percent Inhibition Relative to Control (IL-22) (IL-22; Compound Conc. 0.003703704 μM): 71.96% and 57.94% and 67.89% and 62.44%
Percent Inhibition Relative to Control (IL-22) (IL-22; Compound Conc. 0.011111111 μM): 52.73% and 45.71% and 72.33% and 61.13% and 48.74% and 54.26% and 71.04% and 74.68% and 76.83% and 75.01% and 72.99% and 61.33%
Percent Inhibition Relative to Control (IL-22) (IL-22; Compound Conc. 0.033333333 μM): 59.22% and 62.46% and 72.37% and 75.81% and 66.02% and 52.09% and 58.24% and 79.61% and 59.59% and 77.99% and 81.27% and 61.98%
Percent Inhibition Relative to Control (IL-22) (IL-22; Compound Conc. 0.1 μM): 72.76% and 68.86% and 83.13% and 82.57% and 67.92% and 74.39% and 71.46% and 84.71% and 87.61% and 80.76% and 81.88% and 60.98%
Percent Inhibition Relative to Control (IL-22) (IL-22; Compound Conc. 1.52416E−05 μM): −4.73% and 3.62% and −2.47% and −6.99% and −5.22% and 11.96% and 21.53% and −30.35% and −52.69% and −14.1* Percent and −16.32* Percent and −0.25%
Percent Inhibition Relative to Control (IL-22) (IL-22; Compound Conc. 4.57247E−05 μM): −1.30% and −19.44% and 7.09% and −4.72% and −19.37% and 12.73% and 33.63% and −8.80% and 13.17% and 6.1% and 16.75% and −8.17%
IC50 (IL-22; Average preliminary biomarker assay, read-out: IL-22 IC50 Mean): 0.2 nM
IC50 (IL-22; Preliminary biomarker assay, Test Subject 1, read-out: IL-22 IC50): 0.2 nM
IC50 (IL-22; Preliminary biomarker assay, Test Subject 2, read-out: IL-22 IC50): 0.1 nM
IC50 (IL-22; Preliminary biomarker assay, Test Subject 3, read-out: IL-22 IC50): 0.3 nM
IC50 (IL-22; ELISA, read-out: Selectivity (IC50) IL-22): 0.214 nM
IC50, inhibition of release of IL-22 (IL-22; human PBMCs, 72 hours): sub-nanomolar
EC50 (BRD4 BD1; previously determined, reference level for rat plasma concentrations (FIG. 4D), read-out: free EC50 BD1 (converted)): 182000 nM
EC50 (BRD4 BD1; reference level for dog plasma concentrations (Dog PK study #4), read-out: free EC50 BD1 BRD4): 139000 nM
Effect on gastrointestinal villus morphology or goblet cell number [1]: no deleterious effect
Clinical observations ([2]; 5 mg/kg PO, 24 h, one animal soft feces at 8 h): no abnormalities recorded
Plasma Concentration ([2]; SD rats, PO 5 mg/kg, DMSO/PEG-400/Milli-Q water formulation, 0.083 h, individual animals, 5 mg/kg): 9.76 ng/mL and 0.719 ng/mL and 2.15 ng/mL
Plasma Concentration ([2]; SD rats, PO 5 mg/kg, DMSO/PEG-400/Milli-Q water formulation, 0.25 h, individual animals, 5 mg/kg): 7.42 ng/mL and 5.44 ng/mL and 12.5 ng/mL
Plasma Concentration ([2]; SD rats, PO 5 mg/kg, DMSO/PEG-400/Milli-Q water formulation, 0.5 h, individual animals, 5 mg/kg): 31.9 ng/mL and 15.4 ng/mL and 32.7 ng/mL
Plasma Concentration ([2]; SD rats, PO 5 mg/kg, DMSO/PEG-400/Milli-Q water formulation, 1 h, individual animals, 5 mg/kg): 62.6 ng/mL and 38.4 ng/mL and 101 ng/mL
Plasma Concentration ([2]; SD rats, PO 5 mg/kg, DMSO/PEG-400/Milli-Q water formulation, 2 h, individual animals, 5 mg/kg): 170 ng/mL and 64.8 ng/mL and 272 ng/mL
Plasma Concentration ([2]; SD rats, PO 5 mg/kg, DMSO/PEG-400/Milli-Q water formulation, 4 h, individual animals, 5 mg/kg): 472 ng/mL and 218 ng/mL and 496 ng/mL
Plasma Concentration ([2]; SD rats, PO 5 mg/kg, DMSO/PEG-400/Milli-Q water formulation, 8 h, individual animals, 5 mg/kg): 532 ng/mL and 181 ng/mL and 302 ng/mL
Plasma Concentration ([2]; SD rats, PO 5 mg/kg, DMSO/PEG-400/Milli-Q water formulation, 24 h, individual animals, 5 mg/kg): 2.11 ng/mL and 5.81 ng/mL and 6.35 ng/mL
AUClast [2, 3]: 7070 ng·h/mL and 2643 ng·h/mL and 5058 ng·h/mL
AUClast/D [2, 3]: 1414 mg·h/mL and 529 mg·h/mL and 1012 mg·h/mL
Cmax [2, 3]: 532 ng/mL and 218 ng/mL and 496 ng/mL
F [2, 3]: 81.5% and 30.5% and 58.3%
AUClast/D [2, 4]: 985 mg·h/mL
F [2, 4]: 56.8%
concentration at 1 h ([2]; male, SD, rat, plasma, po, 5 mg/kg, SD rats, PO 5 mg/kg, DMSO/PEG-400/Milli-Q water formulation, 1 h, mean of 3 animals): 67 ng/mL
concentration at 2 h ([2]; male, SD, rat, plasma, po, 5 mg/kg, SD rats, PO 5 mg/kg, DMSO/PEG-400/Milli-Q water formulation, 2 h, mean of 3 animals): 169 ng/mL
concentration at 4 h ([2]; male, SD, rat, plasma, po, 5 mg/kg, SD rats, PO 5 mg/kg, DMSO/PEG-400/Milli-Q water formulation, 4 h, mean of 3 animals): 395 ng/mL
concentration at 8 h ([2]; male, SD, rat, plasma, po, 5 mg/kg, SD rats, PO 5 mg/kg, DMSO/PEG-400/Milli-Q water formulation, 8 h, mean of 3 animals): 338 ng/mL
concentration at 0.083 h ([2]; male, Sprague-Dawley, rat, plasma, po, 5 mg/kg, SD rats, PO 5 mg/kg, DMSO/PEG-400/Milli-Q water formulation, 0.083 h, mean of 3 animals): 4.21 ng/mL
concentration at 0.25 h ([2]; male, Sprague-Dawley, rat, plasma, po, 5 mg/kg, SD rats, PO 5 mg/kg, DMSO/PEG-400/Milli-Q water formulation, 0.25 h, mean of 3 animals): 8.5 ng/mL
concentration at 0.5 h ([2]; male, Sprague-Dawley, rat, plasma, po, 5 mg/kg, SD rats, PO 5 mg/kg, DMSO/PEG-400/Milli-Q water formulation, 0.5 h, mean of 3 animals): 26.7 ng/mL
concentration at 24 h ([2]; male, Sprague-Dawley, rat, plasma, po, 5 mg/kg, SD rats, PO 5 mg/kg, DMSO/PEG-400/Milli-Q water formulation, 24 h, mean of 3 animals): 4.75 ng/mL
Tmax ([2]; male, Sprague-Dawley, rat, plasma, po, 5 mg/kg, SD rats, PO 5 mg/kg, DMSO/PEG-400/Milli-Q water formulation, individual animals): 8 h
AUC(0-t) [2, 5]: 4920 ng·h/mL
Tmax [2, 5]: 5.33 h
Cmax ([2]; male, Sprague-Dawley, rat, plasma, po, 5 mg/kg, SD rats, PO 5 mg/kg, DMSO/PEG-400/Milli-Q water formulation, mean of 3 animals, read-out: Cmax): 415 ng/mL
